Assay results published in ChEMBL document CHEMBL3407493, “Medicinal uses, phytochemistry and pharmacology of family Sterculiaceae: a review” (Eur J Med Chem, 2015).
≈ marks a conversion by molar mass, not a printed value.

Columns and labels:
[1] = system: Liver microsome; test: Antioxidant activity in rat liver microsomes assessed as inhibition of NADPH-dependent lipid peroxidation; assay type: functional
[2] = Antioxidant activity assessed as inhibition of linoleic acid autooxidation; assay type: physicochemical
[3] = Antioxidant activity assessed as DPPH radical scavenging activity; assay type: physicochemical
[4] = system: SK-MEL-28; test: Cytotoxicity against human SK-MEL-28 cells assessed as growth inhibition; assay type: functional, cell-based
[5] = system: Escherichia coli; test: Antibacterial activity against Escherichia coli ATCC 11103; assay type: functional
[6] = Antibacterial activity against Salmonella setubal ATCC 19196; assay type: functional, Salmonella enterica subsp. enterica serovar Setubal; conditions: Salmonella enterica
[7] = system: Klebsiella pneumoniae; test: Antibacterial activity against Klebsiella pneumoniae ATCC 10031; assay type: functional
[8] = Toxicity in Artemia salina Linn.; assay type: organism-based; conditions: in vivo
[9] = Cytotoxicity against human Bel7402 cells assessed as growth inhibition; assay type: functional, cell-based; conditions: Bel-7402

IC50 [1]	IC50 [2]	IC50 [3]	SMILES	further results
25 µg/mL (≈ 21.6 µM)	2.7 µg/mL (≈ 2.34 µM)	2.1 µg/mL (≈ 1.82 µM)	Oc1cc(O)c2c(c1)O[C@H](c1ccc(O)c(O)c1)[C@H](O)[C@H]2c1c(O)cc(O)c2c1O[C@H](c1ccc(O)c(O)c1)[C@H](O)[C@H]2c1c(O)cc(O)c2c1O[C@H](c1ccc(O)c(O)c1)[C@H](O)[C@H]2c1c(O)cc(O)c2c1O[C@H](c1ccc(O)c(O)c1)[C@H](O)C2	–
5.6 µg/mL (≈ 13 µM)	7.7 µg/mL (≈ 17.9 µM)	4.6 µg/mL (≈ 10.7 µM)	Cc1c(C)c2c(c(C)c1O)CCC(C)(CCCC(C)CCCC(C)CCCC(C)C)O2 (racemic) [alpha-TOCHOPHEROL]	–
28 µg/mL (≈ 28.1 µM)	1.9 µg/mL (≈ 1.91 µM)	2.3 µg/mL (≈ 2.31 µM)	Oc1cc(O)c2c(c1)O[C@]1(c3ccc(O)c(O)c3)Oc3cc(O)c4c(c3[C@@H]2[C@H]1O[C@@H]1OC[C@@H](O)[C@H](O)[C@H]1O)O[C@H](c1ccc(O)c(O)c1)[C@H](O)[C@H]4c1c(O)cc(O)c2c1O[C@H](c1ccc(O)c(O)c1)[C@H](O)C2	–
21 µg/mL (≈ 29.6 µM)	2.2 µg/mL (≈ 3.1 µM)	3.9 µg/mL (≈ 5.5 µM)	Oc1cc(O)c2c(c1)O[C@]1(c3ccc(O)c(O)c3)Oc3cc(O)c4c(c3[C@H]2[C@@H]1O[C@@H]1OC[C@@H](O)[C@H](O)[C@H]1O)O[C@H](c1ccc(O)c(O)c1)[C@H](O)C4	–
29 µg/mL (≈ 99.9 µM)	0.62 µg/mL (≈ 2.14 µM)	0.62 µg/mL (≈ 2.14 µM)	Oc1cc(O)c2c(c1)O[C@H](c1ccc(O)c(O)c1)[C@H](O)C2 [(-)-EPICATECHIN]	–
18 µg/mL (≈ 24.4 µM)	2.5 µg/mL (≈ 3.38 µM)	3.9 µg/mL (≈ 5.28 µM)	OC[C@H]1O[C@@H](O[C@H]2[C@H]3c4c(O)cc(O)cc4O[C@]2(c2ccc(O)c(O)c2)Oc2cc(O)c4c(c23)O[C@H](c2ccc(O)c(O)c2)[C@H](O)C4)[C@H](O)[C@@H](O)[C@H]1O	–
36 µg/mL (≈ 35.1 µM)	2 µg/mL (≈ 1.95 µM)	2.4 µg/mL (≈ 2.34 µM)	OC[C@H]1O[C@@H](O[C@@H]2[C@@H]3c4c(O)cc(O)cc4O[C@]2(c2ccc(O)c(O)c2)Oc2cc(O)c4c(c23)O[C@H](c2ccc(O)c(O)c2)[C@H](O)[C@H]4c2c(O)cc(O)c3c2O[C@H](c2ccc(O)c(O)c2)[C@H](O)C3)[C@H](O)[C@@H](O)[C@H]1O	–
12 µg/mL (≈ 20.7 µM)	–	1.4 µg/mL (≈ 2.42 µM)	Oc1cc(O)c2c(c1)O[C@H](c1ccc(O)c(O)c1)[C@H](O)[C@H]2c1c(O)cc(O)c2c1O[C@H](c1ccc(O)c(O)c1)[C@H](O)C2 [PROCYANIDIN B2]	–
68 µg/mL (≈ 78.5 µM)	5.3 µg/mL (≈ 6.11 µM)	6.2 µg/mL (≈ 7.15 µM)	Oc1cc(O)c2c(c1)O[C@H](c1ccc(O)c(O)c1)[C@H](O)[C@H]2c1c(O)cc(O)c2c1O[C@H](c1ccc(O)c(O)c1)[C@H](O)[C@H]2c1c(O)cc(O)c2c1O[C@H](c1ccc(O)c(O)c1)[C@H](O)C2 [PROCYANIDIN C1]	–
12 µg/mL (≈ 20.7 µM)	2.3 µg/mL (≈ 3.98 µM)	2.3 µg/mL (≈ 3.98 µM)	Oc1cc(O)c2c(c1)O[C@H](c1ccc(O)c(O)c1)[C@H](O)[C@H]2c1c(O)cc2c(c1O)C[C@@H](O)[C@@H](c1ccc(O)c(O)c1)O2	–

Further lines, the compound ahead of its results:

SMILES	IC50 [1]	IC50 [2]	IC50 [3]	further results
C=C(C)[C@@H]1CC[C@]2(C(=O)O)CC[C@]3(COC(=O)c4ccccc4)[C@H](CC[C@@H]4[C@@]5(C)CC[C@H](OC(C)=O)C(C)(C)[C@@H]5CC[C@]43C)[C@@H]12	–	–	–	IC50 [4]: 32000 nM
CC(C)CC(C(=O)NC1C(=O)NC(Cc2ccccc2)C(=O)N/C=C\c2ccc(cc2)OC1C(C)C)N(C)C (configuration not stated)	–	–	–	MIC [5]: 25 µg/mL (≈ 46.8 µM); MIC [6]: 50 µg/mL (≈ 93.5 µM); MIC [7]: 25 µg/mL (≈ 46.8 µM)
CC1=C2OC[C@@H](C)c3c(O)cc(C)c(c32)C(=O)C1=O	–	–	–	LC50 [8]: 50.7 µg/mL (≈ 196 µM)
Cc1c2c3c(ccc(C)c3oc1=O)C(C)CO2 (configuration not stated)	–	–	–	LC50 [8]: 188 µg/mL (≈ 816 µM)
Cc1cc2c(C(C)C)c(O)cc(C)c2oc1=O	–	–	–	LC50 [8]: 0.61 µg/mL (≈ 2.63 µM)
C=C(C)[C@@H]1CC[C@]2(C(=O)O)CC[C@]3(C)[C@H](CC[C@@H]4[C@@]5(C)CC[C@H](OC(=O)/C=C/c6ccc(O)c(O)c6)C(C)(C)[C@@H]5CC[C@]43C)[C@@H]12	–	–	–	IC50 [4]: 81700 nM
CC1=Cc2c(c(C)cc(O)c2C(C)C)C(=O)C1=O [MANSONONE G]	–	–	–	LC50 [8]: 64.4 µg/mL (≈ 263 µM)
CC(C)(O)/C=C/C(=O)[C@](C)(O)[C@H]1[C@H](O)C[C@@]2(C)[C@@H]3CC=C4[C@@H](C[C@H](O)C(=O)C4(C)C)[C@]3(C)C(=O)C[C@]12C [CUCURBITACIN D]	–	–	–	IC50 [4]: 1220 nM; IC50 [9]: 1410 nM
O=C(N[C@H](CO)[C@H](O)c1ccc([N+](=O)[O-])cc1)C(Cl)Cl [CHLORAMPHENICOL]	–	–	–	MIC [5]: 3.12 µg/mL (≈ 9.66 µM); MIC [6]: 3.12 µg/mL (≈ 9.66 µM); MIC [7]: 1.56 µg/mL (≈ 4.83 µM)
CC1(C)C(=O)[C@@H](O)C[C@@H]2C1=CC[C@@H]1[C@@]2(C)C(=O)C[C@]2(C)[C@@H]([C@@](C)(O)C(=O)CC(O)C(C)(C)O)[C@H](O)C[C@@]12C (some centres not stated) [CUCURBITACIN G]	–	–	–	IC50 [4]: 1280 nM; IC50 [9]: 1370 nM
CC1=Cc2c(C(C)C)ccc(C)c2C(=O)C1=O	–	–	–	LC50 [8]: 2.08 µg/mL (≈ 9.11 µM)
COc1cc(C)c2oc(=O)c(C)cc2c1C(C)C	–	–	–	LC50 [8]: 24.2 µg/mL (≈ 98.2 µM)
